Results reported in patent US10131652B2, “Pyrimidinyloxy benzene derivatives as herbicides” (E. I. DU PONT DE NEMOURS AND COMPANY, priority 2014, dated 2018).
Read-outs that look alike come from different tables or passages of the source.

Key:
Assay in all cases: Test E pre-/postemergence plant response
Type in all cases: in vivo
[1] = test system: speedwell (bird's-eye speedwell, Veronica persica); conditions: scale 0 to 100, read-out: Plant response rating, Speedwell; for pest or weed control at 16 g/ha: 16 g ai/ha; for pest or weed control at 62 g/ha: 62 g ai/ha; for pest or weed control at 125 g/ha: 125 g ai/ha
Method in brief: (§1)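 Visual scores on a 0–100 scale (100 = complete control) were assigned against untreated controls 7–21 days after treatment in a controlled environment. Compounds, formulated with solvent plus surfactant, were applied to pre-emergence silt-loam sowings or to 1- to 4-leaf plants (2–18 cm) in potting medium.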

[2] = test system: canarygrass (Phalaris minor); conditions: scale 0 to 100, read-out: Plant response rating, Canarygrass; for pest or weed control at 16 g/ha: 16 g ai/ha; for pest or weed control at 31 g/ha: 31 g ai/ha; for pest or weed control at 62 g/ha: 62 g ai/ha; for pest or weed control at 125 g/ha: 125 g ai/ha
Method in brief: as §1

[3] = test system: winter barley (Hordeum vulgare); conditions: scale 0 to 100, read-out: Plant response rating, Barley, Winter; for plant injury at 16 g/ha: 16 g ai/ha; for plant injury at 31 g/ha: 31 g ai/ha; for plant injury at 62 g/ha: 62 g ai/ha; for plant injury at 125 g/ha: 125 g ai/ha
Method in brief: as §1

[4] = test system: wild mustard (Sinapis arvensis); conditions: Brassica, scale 0 to 100, read-out: Plant response rating, Mustard, Wild; for pest or weed control at 16 g/ha: 16 g ai/ha; for pest or weed control at 31 g/ha: 31 g ai/ha; for pest or weed control at 62 g/ha: 62 g ai/ha; for pest or weed control at 125 g/ha: 125 g ai/ha
Method in brief: as §1

[5] = test system: windgrass (Apera spica-venti); conditions: scale 0 to 100, read-out: Plant response rating, Windgrass; for pest or weed control at 16 g/ha: 16 g ai/ha; for pest or weed control at 62 g/ha: 62 g ai/ha; for pest or weed control at 125 g/ha: 125 g ai/ha
Method in brief: as §1

[6] = test system: spring barley (Hordeum vulgare); conditions: for plant injury at 16 g/ha: 16 g ai/ha; for plant injury at 31 g/ha: 31 g ai/ha; for plant injury at 62 g/ha: 62 g ai/ha; for plant injury at 125 g/ha: 125 g ai/ha
Method in brief: as §1

[7] = test system: bluegrass (annual bluegrass, Poa annua); conditions: scale 0 to 100, read-out: Plant response rating, Bluegrass; for pest or weed control at 16 g/ha: 16 g ai/ha; for pest or weed control at 31 g/ha: 31 g ai/ha; for pest or weed control at 62 g/ha: 62 g ai/ha; for pest or weed control at 125 g/ha: 125 g ai/ha
Method in brief: as §1

[8] = test system: chickweed (common chickweed, Stellaria media); conditions: scale 0 to 100, read-out: Plant response rating, Chickweed; for pest or weed control at 16 g/ha: 16 g ai/ha; for pest or weed control at 31 g/ha: 31 g ai/ha; for pest or weed control at 62 g/ha: 62 g ai/ha; for pest or weed control at 125 g/ha: 125 g ai/ha
Method in brief: as §1

[9] = test system: galium (catchweed bedstraw, Galium aparine); conditions: scale 0 to 100, read-out: Plant response rating, Galium; for pest or weed control at 16 g/ha: 16 g ai/ha; for pest or weed control at 31 g/ha: 31 g ai/ha; for pest or weed control at 62 g/ha: 62 g ai/ha; for pest or weed control at 125 g/ha: 125 g ai/ha
Method in brief: as §1

[10] = test system: downy bromegrass (Bromus tectorum); conditions: scale 0 to 100, read-out: Plant response rating, Bromegrass, Downy; for pest or weed control at 16 g/ha: 16 g ai/ha; for pest or weed control at 31 g/ha: 31 g ai/ha; for pest or weed control at 62 g/ha: 62 g ai/ha; for pest or weed control at 125 g/ha: 125 g ai/ha
Method in brief: as §1

[11] = post-emergence, 31 g ai/ha, Postemergence
[12] = post-emergence, Postemergence, scale 0 to 100, read-out: Plant response rating, Barley, Spring
[13] = pre-emergence, Preemergence, scale 0 to 100, read-out: Plant response rating, Barley, Spring

Fc1cccc(Oc2ncc(Cl)cn2)c1-c1cc(C(F)F)no1 [Compound 144, 5-chloro-2-[2-[3-(difluoromethyl)-5-isoxazolyl]-3-fluorophenoxy]pyrimidine]
pest or weed control at 16 g/ha ([1]; post-emergence, Postemergence): 100%
pest or weed control at 31 g/ha [1, 11]: 100%
pest or weed control at 62 g/ha ([1]; post-emergence, Postemergence): 100%
pest or weed control at 125 g/ha ([1]; post-emergence, Postemergence): 100%
pest or weed control at 16 g/ha ([1]; pre-emergence, Preemergence): 100%
pest or weed control at 62 g/ha ([1]; pre-emergence, Preemergence): 100%
pest or weed control at 125 g/ha ([1]; pre-emergence, Preemergence): 100%
pest or weed control at 16 g/ha ([2]; post-emergence, Postemergence): 35%
pest or weed control at 31 g/ha ([2]; post-emergence, Postemergence): 60%
pest or weed control at 62 g/ha ([2]; post-emergence, Postemergence): 65%
pest or weed control at 125 g/ha ([2]; post-emergence, Postemergence): 85%
pest or weed control at 16 g/ha ([2]; pre-emergence, Preemergence): 35%
pest or weed control at 31 g/ha ([2]; pre-emergence, Preemergence): 80%
pest or weed control at 62 g/ha ([2]; pre-emergence, Preemergence): 100%
pest or weed control at 125 g/ha ([2]; pre-emergence, Preemergence): 100%
plant injury at 16 g/ha ([3]; post-emergence, Postemergence): 30%
plant injury at 31 g/ha ([3]; post-emergence, Postemergence): 20%
plant injury at 62 g/ha ([3]; post-emergence, Postemergence): 35%
plant injury at 125 g/ha ([3]; post-emergence, Postemergence): 45%
plant injury at 16 g/ha ([3]; pre-emergence, Preemergence): 30%
plant injury at 31 g/ha ([3]; pre-emergence, Preemergence): 35%
plant injury at 62 g/ha ([3]; pre-emergence, Preemergence): 55%
plant injury at 125 g/ha ([3]; pre-emergence, Preemergence): 55%
pest or weed control at 16 g/ha ([4]; post-emergence, Postemergence): 100%
pest or weed control at 31 g/ha ([4]; post-emergence, Postemergence): 100%
pest or weed control at 62 g/ha ([4]; post-emergence, Postemergence): 100%
pest or weed control at 125 g/ha ([4]; post-emergence, Postemergence): 100%
pest or weed control at 16 g/ha ([4]; pre-emergence, Preemergence): 90%
pest or weed control at 31 g/ha ([4]; pre-emergence, Preemergence): 100%
pest or weed control at 62 g/ha ([4]; pre-emergence, Preemergence): 100%
pest or weed control at 125 g/ha ([4]; pre-emergence, Preemergence): 100%
pest or weed control at 16 g/ha ([5]; post-emergence, Postemergence): 10%
pest or weed control at 31 g/ha [5, 11]: 20%
pest or weed control at 62 g/ha ([5]; post-emergence, Postemergence): 25%
pest or weed control at 125 g/ha ([5]; post-emergence, Postemergence): 55%
pest or weed control at 16 g/ha ([5]; pre-emergence, Preemergence): 10%
pest or weed control at 62 g/ha ([5]; pre-emergence, Preemergence): 100%
pest or weed control at 125 g/ha ([5]; pre-emergence, Preemergence): 100%
plant injury at 16 g/ha [6, 12]: 15%
plant injury at 31 g/ha [6, 12]: 25%
plant injury at 62 g/ha [6, 12]: 35%
plant injury at 125 g/ha ([6]; post-emergence, Postemergence, scale 0 to 100 (0 no effect, 100 complete control), read-out: Plant response rating, Barley, Spring): 45%
plant injury at 16 g/ha [6, 13]: 10%
plant injury at 31 g/ha [6, 13]: 25%
plant injury at 62 g/ha [6, 13]: 45%
plant injury at 125 g/ha [6, 13]: 65%
pest or weed control at 16 g/ha ([7]; post-emergence, Postemergence): 25%
pest or weed control at 31 g/ha ([7]; post-emergence, Postemergence): 45%
pest or weed control at 62 g/ha ([7]; post-emergence, Postemergence): 55%
pest or weed control at 125 g/ha ([7]; post-emergence, Postemergence): 65%
pest or weed control at 16 g/ha ([7]; pre-emergence, Preemergence): 10%
pest or weed control at 31 g/ha ([7]; pre-emergence, Preemergence): 15%
pest or weed control at 62 g/ha ([7]; pre-emergence, Preemergence): 40%
pest or weed control at 125 g/ha ([7]; pre-emergence, Preemergence): 85%
pest or weed control at 16 g/ha ([8]; post-emergence, Postemergence): 85%
pest or weed control at 31 g/ha ([8]; post-emergence, Postemergence): 100%
pest or weed control at 62 g/ha ([8]; post-emergence, Postemergence): 100%
pest or weed control at 125 g/ha ([8]; post-emergence, Postemergence): 100%
pest or weed control at 16 g/ha ([8]; pre-emergence, Preemergence): 100%
pest or weed control at 31 g/ha ([8]; pre-emergence, Preemergence): 100%
pest or weed control at 62 g/ha ([8]; pre-emergence, Preemergence): 100%
pest or weed control at 125 g/ha ([8]; pre-emergence, Preemergence): 100%
pest or weed control at 16 g/ha ([9]; post-emergence, Postemergence): 80%
pest or weed control at 31 g/ha ([9]; post-emergence, Postemergence): 95%
pest or weed control at 62 g/ha ([9]; post-emergence, Postemergence): 100%
pest or weed control at 125 g/ha ([9]; post-emergence, Postemergence): 100%
pest or weed control at 16 g/ha ([9]; pre-emergence, Preemergence): 20%
pest or weed control at 31 g/ha ([9]; pre-emergence, Preemergence): 70%
pest or weed control at 62 g/ha ([9]; pre-emergence, Preemergence): 100%
pest or weed control at 125 g/ha ([9]; pre-emergence, Preemergence): 100%
pest or weed control at 16 g/ha ([10]; post-emergence, Postemergence): 25%
pest or weed control at 31 g/ha ([10]; post-emergence, Postemergence): 35%
pest or weed control at 62 g/ha ([10]; post-emergence, Postemergence): 40%
pest or weed control at 125 g/ha ([10]; post-emergence, Postemergence): 75%
pest or weed control at 16 g/ha ([10]; pre-emergence, Preemergence): 10%
pest or weed control at 31 g/ha ([10]; pre-emergence, Preemergence): 10%
pest or weed control at 62 g/ha ([10]; pre-emergence, Preemergence): 35%
pest or weed control at 125 g/ha ([10]; pre-emergence, Preemergence): 55%
